{
  "source": "paper PMC11285769",
  "about": "“A pan-respiratory antiviral chemotype targeting a transient host multi-protein complex” (Open Biology, 2024)",
  "key": {"FLUV A/WSN/33": {"system": "FLUV A/WSN/33", "assay": "microbe, parasite or virus in culture", "assay_type": "cell-based, influenza A/WSN/33", "settings": "Influenza A virus, MDCK; for IC50: read-out: IC50 (figure 2a)"}, "[1]": {"system": "swine influenza virus SIC/SK WT", "assay": "microbe, parasite or virus in culture", "assay_type": "cell-based", "settings": "MDCK, read-out: PAV-431 EC50"}, "[2]": {"settings": "rat, in vivo"}, "p62/SQSTM1": {"system": "p62/SQSTM1", "assay_type": "cell-based"}, "HRV-16": {"system": "HRV-16", "assay": "HRV assay in H1-HeLa cells by TCID50", "assay_type": "cell-based, human rhinovirus 16", "settings": "Rhinovirus A"}, "[3]": {"system": "human cytomegalovirus strain AD69", "assay": "microbe, parasite or virus in culture", "assay_type": "cell-based", "settings": "Human betaherpesvirus 5, H1-HeLa, read-out: PAV-431 EC50"}, "[4]": {"assay": "Pharmacokinetics, tissue uptake and safety in rats", "settings": "5 mg kg^−1 IP"}, "bovine coronavirus": {"system": "bovine coronavirus", "assay": "microbe, parasite or virus in culture", "assay_type": "cell-based", "settings": "Betacoronavirus 1, read-out: PAV-431 EC50"}, "[5]": {"system": "adenovirus serotype 5 strain adenoid 65", "assay": "microbe, parasite or virus in culture", "assay_type": "cell-based", "settings": "unidentified adenovirus, A549, read-out: PAV-431 EC50"}, "[6]": {"system": "members of Orthomyxoviridae, Coronaviridae, Paramyxoviridae, Adenoviridae, Herpesviridae and Picornaviridae", "assay": "microbe, parasite or virus in culture", "assay_type": "cell-based", "settings": "Orthoherpesviridae, read-out: EC50 across six respiratory viral families"}, "14-3-3 zeta (YWHAZ)": {"molecular_target": "14-3-3 zeta (YWHAZ) (Homo sapiens, UniProt P63104)", "sequence (P63104 whole entry)": "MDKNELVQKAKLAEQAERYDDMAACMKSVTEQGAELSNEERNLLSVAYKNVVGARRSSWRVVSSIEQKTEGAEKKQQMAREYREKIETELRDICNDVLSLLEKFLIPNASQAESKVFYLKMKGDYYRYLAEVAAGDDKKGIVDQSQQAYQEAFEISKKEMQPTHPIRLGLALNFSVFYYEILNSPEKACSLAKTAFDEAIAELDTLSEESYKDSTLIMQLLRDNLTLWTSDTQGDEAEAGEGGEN", "assay_type": "binding"}, "5-HT2B": {"molecular_target": "5-HT2B (Homo sapiens, UniProt P41595)", "sequence (P41595 whole entry, species assumed)": "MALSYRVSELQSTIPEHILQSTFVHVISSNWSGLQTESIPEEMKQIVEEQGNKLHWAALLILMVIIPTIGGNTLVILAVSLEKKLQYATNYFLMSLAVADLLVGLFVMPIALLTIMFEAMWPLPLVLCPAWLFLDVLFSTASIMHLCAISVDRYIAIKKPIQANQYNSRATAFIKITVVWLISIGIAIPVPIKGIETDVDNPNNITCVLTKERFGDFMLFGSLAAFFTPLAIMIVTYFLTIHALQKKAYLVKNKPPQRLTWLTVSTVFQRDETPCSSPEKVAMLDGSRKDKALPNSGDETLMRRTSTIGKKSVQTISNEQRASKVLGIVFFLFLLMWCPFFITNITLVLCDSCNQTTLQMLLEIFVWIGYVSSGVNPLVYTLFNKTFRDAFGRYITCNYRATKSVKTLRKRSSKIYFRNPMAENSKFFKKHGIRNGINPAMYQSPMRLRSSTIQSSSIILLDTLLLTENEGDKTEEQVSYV", "assay": "CEREP panel off-target: 5-HT2B", "settings": "high concentrations"}, "in vivo": {"assay": "in vivo", "settings": "rat"}, "rabies virus CVS-11": {"system": "rabies virus CVS-11", "assay": "microbe, parasite or virus in culture", "assay_type": "cell-based"}, "SARS-CoV-2 WA1/2020": {"system": "SARS-CoV-2 WA1/2020", "assay": "microbe, parasite or virus in culture", "assay_type": "cell-based"}, "[7]": {"system": "respiratory synctial virus straine A-2", "assay": "microbe, parasite or virus in culture", "assay_type": "cell-based", "settings": "human respiratory syncytial virus, HEp-2, read-out: PAV-431 EC50"}, "Nipah virus rNiV-ZsG": {"system": "Nipah virus rNiV-ZsG", "assay": "microbe, parasite or virus in culture", "assay_type": "cell-based"}, "hERG channel": {"molecular_target": "hERG channel (Homo sapiens, UniProt Q12809)", "sequence (Q12809 whole entry)": "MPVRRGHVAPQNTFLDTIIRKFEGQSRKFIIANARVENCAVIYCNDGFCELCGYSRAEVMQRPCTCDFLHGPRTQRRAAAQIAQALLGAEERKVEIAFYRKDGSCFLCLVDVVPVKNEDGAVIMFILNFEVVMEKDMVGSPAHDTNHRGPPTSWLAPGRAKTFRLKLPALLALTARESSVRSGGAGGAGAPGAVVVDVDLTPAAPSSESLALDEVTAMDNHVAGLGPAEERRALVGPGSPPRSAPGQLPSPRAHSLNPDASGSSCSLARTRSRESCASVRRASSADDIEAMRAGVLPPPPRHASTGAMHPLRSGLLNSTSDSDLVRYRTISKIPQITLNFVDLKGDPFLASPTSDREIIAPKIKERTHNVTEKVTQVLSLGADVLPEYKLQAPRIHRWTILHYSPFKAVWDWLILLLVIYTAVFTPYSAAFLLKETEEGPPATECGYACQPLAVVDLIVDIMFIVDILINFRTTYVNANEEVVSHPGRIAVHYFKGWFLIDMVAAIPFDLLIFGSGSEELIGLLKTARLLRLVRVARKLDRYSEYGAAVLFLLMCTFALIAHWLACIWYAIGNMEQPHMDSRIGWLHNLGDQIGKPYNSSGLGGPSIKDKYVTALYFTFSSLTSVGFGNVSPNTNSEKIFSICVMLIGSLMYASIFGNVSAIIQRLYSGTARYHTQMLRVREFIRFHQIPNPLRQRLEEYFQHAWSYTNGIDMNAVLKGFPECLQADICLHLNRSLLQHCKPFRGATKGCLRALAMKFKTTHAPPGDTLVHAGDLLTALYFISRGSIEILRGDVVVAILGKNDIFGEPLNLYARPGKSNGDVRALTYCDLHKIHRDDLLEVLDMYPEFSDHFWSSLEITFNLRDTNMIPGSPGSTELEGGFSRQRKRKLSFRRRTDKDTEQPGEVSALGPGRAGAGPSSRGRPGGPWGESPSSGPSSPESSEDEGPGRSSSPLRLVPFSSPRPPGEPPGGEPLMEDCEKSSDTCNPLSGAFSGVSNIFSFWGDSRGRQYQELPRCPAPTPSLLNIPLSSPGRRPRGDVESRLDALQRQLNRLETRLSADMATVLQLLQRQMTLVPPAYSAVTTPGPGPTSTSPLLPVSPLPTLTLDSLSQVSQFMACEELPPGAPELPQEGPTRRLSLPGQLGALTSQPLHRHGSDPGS", "assay": "hERG channel inhibition"}, "RSV A-2 virus": {"system": "RSV A-2 virus", "assay": "RSV cotton rat study", "assay_type": "in vivo", "settings": "cotton rats, 2 mg kg^−1 IP twice daily, days −1 to 4, plaque assay", "procedure": "Female cotton rats, approximately 5 weeks of age, were obtained from Envigo (formerly Harlan), ear-tagged for identification purposes, and allowed to acclimate for >1 week prior to study start. Animals were housed individually. Vehicle or drug (2 mg kg^−1) was administered by an intraperitoneal route twice daily on study days −1 through day 4. On day 0, animals were infected with 1 × 10^5 PFU of RSV A-2 virus originally obtained from ATCC (VR-1540), administered in a 50 µl volume by an intranasal route approximately 2 h after the morning treatment dose. Back titration of the viral stock and diluted inoculum was performed to confirm the titre of the RSV stock used for infection. All inoculations were performed while the animals were under the influence of inhalant anaesthesia. All animals were euthanized on day 5 and the lungs were processed for determination of RSV titres by plaque assay."}, "BoCoV BRCV-OK-0514-2": {"system": "BoCoV BRCV-OK-0514-2", "assay": "microbe, parasite or virus in culture", "assay_type": "cell-based, bovine coronavirus", "settings": "Betacoronavirus 1"}, "[8]": {"system": "porcine epidemic diarrhoea virus (PEDV)", "assay": "PEDV pig study", "assay_type": "in vivo", "settings": "newborn pigs infected with PEDV, 4 mg kg^−1 intramuscular, relative to control", "procedure": "18 litters comprised of 91 individuals of newborn (2–4 days old) crossbred pigs weighing 3 kg were randomized to control (vehicle) or treatment groups. Animals were infected with 1 × 10^5 PFU of PEDV administered orally. Vehicle or drug was administered intramuscular at 4 mg kg^−1 immediately after challenge and again 24 h post-infection. Compound efficacy was determined by survivability. Endpoint of study was 6 days post-infection."}, "MHV-68": {"system": "MHV-68", "assay": "microbe, parasite or virus in culture", "settings": "Murine herpesvirus, BHK-21"}, "[9]": {"system": "FLUV nucleoprotein capsid assembly", "assay_type": "biochemical, influenza (FLUV)"}, "[10]": {"settings": "read-out: EC50 against infectious FLUV"}, "[11]": {"settings": "HRV16, HRV-16, MOI = 5, H1-HeLa cells, TCID50, read-out: EC50"}},
  "note": "Entries after “also recorded” stand apart in the source; their conditions may differ. Where two headings read alike, the source gives them in different places.",
  "data": [
    {"molecule": "COc1c(CNC(=O)c2cc(C3CC3)nn2C)cccc1OC(F)(F)F", "note": "[PAV-431]", "values": [
      {"measurement": "EC50", "setting": "FLUV A/WSN/33; read-out: PAV-431 EC50", "value": 25, "unit": "nM"},
      {"measurement": "EC50", "setting": "[1]", "value": 25, "unit": "nM"},
      {"measurement": "clearance", "setting": "[2]", "value": "quick clearing tendency"},
      {"measurement": "distribution in brain", "setting": "[2]", "value": "good distribution in brain and lungs"},
      {"measurement": "distribution in lungs", "setting": "[2]", "value": "good distribution in brain and lungs"},
      {"measurement": "distribution in plasma", "setting": "[2]", "value": "good distribution in plasma"},
      {"measurement": "volume of distribution", "setting": "[2]", "value": "better volume of distribution than PAV-104"},
      {"measurement": "concentration in lungs", "setting": "[2]; ip", "value": 167, "unit": "nM"},
      {"measurement": "concentration in plasma", "setting": "[2]; ip", "value": 108, "unit": "nM"},
      {"measurement": "levels obtained, oral route", "setting": "[2]; po", "value": "too low to analyse the PK properties"},
      {"measurement": "amount of p62 in eluate", "setting": "p62/SQSTM1", "value": "restored with PAV-431 treatment"},
      {"measurement": "EC50", "setting": "HRV-16; HRV16, H1-HeLa, read-out: PAV-431 EC50", "value": "< 20", "unit": "nM"},
      {"measurement": "EC50", "setting": "[3]", "value": 25, "unit": "nM"},
      {"measurement": "safety of dose", "setting": "[4]", "value": "found to be safe"},
      {"measurement": "EC50", "setting": "bovine coronavirus", "value": 50, "unit": "nM"},
      {"measurement": "EC50", "setting": "[5]", "value": "< 100", "unit": "nM"},
      {"measurement": "EC50", "setting": "[6]", "value": "≤ 100", "unit": "nM"},
      {"measurement": "14-3-3 binding from PAV-104 resin flowthrough", "setting": "14-3-3 zeta (YWHAZ)", "value": "a substantial amount of the 14-3-3 in the PAV-104 resin flowthrough bound to the PAV-431 resin"},
      {"measurement": "off-target effect at 5-HT2B", "setting": "5-HT2B", "value": "potential off-target effects at high concentrations could be relevant"},
      {"measurement": "bioavailability", "setting": "in vivo", "value": 59, "unit": "%"},
      {"measurement": "activity against rabies virus", "setting": "rabies virus CVS-11", "value": "did not show significant activity against rabies virus"},
      {"measurement": "EC50", "setting": "rabies virus CVS-11; Rabies virus CVS-11, read-out: PAV-431 EC50", "value": "> 400", "unit": "nM"},
      {"measurement": "efficacy against SARS-CoV-2 WA 1/2020", "setting": "SARS-CoV-2 WA1/2020", "value": "significant efficacy"},
      {"measurement": "EC50", "setting": "SARS-CoV-2 WA1/2020; Severe acute respiratory syndrome coronavirus 2, Vero C1008, read-out: PAV-431 EC50", "value": 100, "unit": "nM"},
      {"measurement": "EC50", "setting": "[7]", "value": "< 25", "unit": "nM"},
      {"measurement": "activity against Nipah virus", "setting": "Nipah virus rNiV-ZsG", "value": "comparably potent"},
      {"measurement": "EC50", "setting": "Nipah virus rNiV-ZsG; Henipavirus nipahense, read-out: PAV-431 EC50", "value": "≤ 50", "unit": "nM"},
      {"measurement": "hERG channel inhibition", "setting": "hERG channel", "value": "negative for hERG channel inhibition"},
      {"measurement": "RSV titre in lungs relative to vehicle", "setting": "RSV A-2 virus", "value": "significant drop in viral titre; also recorded: small but statistically significant drop in RSV titre"}
    ]},
    {"molecule": "COc1cccc(CNC(=O)c2cc(C(C)(C)C)nn2C)c1OC", "note": "[PAV-773]", "values": [
      {"measurement": "EC50", "setting": "FLUV A/WSN/33", "value": "< 1000", "unit": "nM"},
      {"measurement": "EC50", "setting": "FLUV A/WSN/33; [10]", "value": 177, "unit": "nM"},
      {"measurement": "IC50", "setting": "FLUV A/WSN/33", "value": 176, "unit": "nM"},
      {"measurement": "EC50", "setting": "BoCoV BRCV-OK-0514-2", "value": "< 1000", "unit": "nM"},
      {"measurement": "likelihood of survival", "setting": "[8]", "value": "significantly increased the likelihood of survival"},
      {"measurement": "EC50", "setting": "HRV-16; [11]", "value": "< 1000", "unit": "nM"},
      {"measurement": "EC50", "setting": "MHV-68", "value": "< 1000", "unit": "nM"},
      {"measurement": "assembly of FLUV nucleoprotein into a completed capsid", "setting": "[9]", "value": "blocked assembly of FLUV nucleoprotein into a completed capsid in a dose-dependent manner"}
    ]},
    {"molecule": "COc1cccc(CNC(=O)c2cc(C3CC3)nn2C)c1OC", "note": "[PAV-835]", "values": [
      {"measurement": "EC50", "setting": "FLUV A/WSN/33", "value": "< 1000", "unit": "nM"},
      {"measurement": "EC50", "setting": "FLUV A/WSN/33; [10]", "value": 42, "unit": "nM"},
      {"measurement": "IC50", "setting": "FLUV A/WSN/33", "value": 14.8, "unit": "nM"},
      {"measurement": "EC50", "setting": "BoCoV BRCV-OK-0514-2", "value": "< 1000", "unit": "nM"},
      {"measurement": "likelihood of survival", "setting": "[8]", "value": "significantly increased the likelihood of survival"},
      {"measurement": "EC50", "setting": "HRV-16; [11]", "value": "< 1000", "unit": "nM"},
      {"measurement": "EC50", "setting": "MHV-68", "value": "< 1000", "unit": "nM"},
      {"measurement": "assembly of FLUV nucleoprotein into a completed capsid", "setting": "[9]", "value": "blocked assembly of FLUV nucleoprotein into a completed capsid in a dose-dependent manner"}
    ]}
  ]
}
